# Assay results published in US6573274B1, “Sulfonamide compounds and uses thereof as medicines” (Fujisawa Pharmaceutical Co. Ltd., priority 1998, dated 2003).
# Structures can show the parent of a compound that is named as a salt.
row,SMILES,melting point [°C]
1,"CCCCCS(=O)(=O)NC(=O)c1ccc2nc(C)n(Cc3ncc(C(F)(F)F)cc3Cl)c2n1 [Example 57, 3-[(3-chloro-5-(trifluoromethyl)-2-pyridyl)methyl]-2-methyl-5-(1-pentanesulfonylcarbamoyl)-3H-imidazo[4,5-b]pyridine]",169 to 170
2,"CCCCCOc1ccc(Cn2c(C)nc3c(C)cc(C(=O)NS(=O)(=O)CCCCC)nc32)c(Cl)c1 [Example 38, 3-[2-chloro-4-(1-pentyloxy)benzyl]-2,7-dimethyl-5-(1-pentanesulfonylcarbamoyl)-3H-imidazo[4,5-b]pyridine]",149 to 150
3,"CCCCCOc1ccc(Cn2c(C)nc3ccc(C(=O)NS(=O)(=O)c4ccc(Br)s4)nc32)c(Cl)c1 [Example 23, 5-[(5-bromothiophen-2-yl)sulfonylcarbamoyl]-3-[2-chloro-4-(1-pentyloxy)benzyl]-2-methyl-3H-imidazo[4,5-b]pyridine]",156 to 157
4,"CCCCCS(=O)(=O)NC(=O)c1ccc2nc(CC)n(Cc3ccc(OCC4CCCCC4)cc3Cl)c2n1 [Example 68, 3-(2-chloro-4-(cyclohexylmethyloxy)benzyl)-2-ethyl-5-(1-pentanesulfonylcarbamoyl)-3H-imidazo[4,5-b]pyridine]",137 to 139
5,"CCCCS(=O)(=O)NC(=O)c1ccc2nc(C)n(Cc3ccc(NC(=O)OC(C)(C)C)cc3Cl)c2n1 [Example 109, 5-(1-butanesulfonylcarbamoyl)-3-(4-(N-t-butoxycarbonylamino)-2-chlorobenzyl)-2-methyl-3H-imidazo[4,5-b]pyridine]",229 to 230
6,"CCCCCS(=O)(=O)NC(=O)c1ccc2nc(C)n(Cc3ccc(-c4ccco4)cc3Cl)c2n1 [Example 70, 3-[2-chloro-4-(2-furyl)benzyl]-2-methyl-5-(1-pentanesulfonylcarbamoyl)-3H-imidazo[4,5-b]pyridine]",184 to 185
7,"CCCCCS(=O)(=O)NC(=O)c1cc(C)c2nc(C)n(Cc3ccc(OCCC)cc3Cl)c2n1 [Example 35, 3-(2-chloro-4-(1-propoxy)benzyl)-2,7-dimethyl-5-(1-pentanesulfonylcarbamoyl)-3H-imidazo[4,5-b]pyridine]",161 to 162
8,"CCCCCS(=O)(=O)NC(=O)c1cc(C)c2nc(C)n(Cc3ccc(N(C)C(=O)OC(C)(C)C)cc3Cl)c2n1 [Example 77, 3-(4-(N-(tert-butoxycarbonyl)-N-methylamino)-2-chlorobenzyl)-2,7-dimethyl-5-(1-pentanesulfonylcarbamoyl)-3H-imidazo[4,5-b]pyridine]",193 to 194
9,"CCCCS(=O)(=O)NC(=O)c1ccc2nc(CC)n(Cc3ccc(OCC4CCCCC4)cc3Cl)c2n1 [Example 67, 5-(1-butanesulfonylcarbamoyl)-3-(2-chloro-4-(cyclohexylmethyloxy)benzyl)-2-ethyl-3H-imidazo[4,5-b]pyridine]",145 to 146
10,"CCCCCS(=O)(=O)NC(=O)c1ccc2nc(C)n(Cc3ccc(N(C)CCCC)cc3Cl)c2n1 [Example 45, 3-(4-((1-butyl)methylamino)-2-chlorobenzyl)-2-methyl-5-(1-pentanesulfonylcarbamoyl)-3H-imidazo[4,5-b]pyridine]",129 to 130
11,"CCCCNS(=O)(=O)NC(=O)c1ccc2nc(C)n(Cc3ccc(OCC)cc3Cl)c2n1 [Example 11, 5-((1-butylaminosulfonyl)carbamoyl)-3-(2-chloro-4-ethoxybenzyl)-2-methyl-3H-imidazo[4,5-b]pyridine]",175 to 177
12,"CCCCCS(=O)(=O)NC(=O)c1ccc2nc(C)n(Cc3ccc(OC(C)C)cc3Cl)c2n1 [Example 14, 3-(2-chloro-4-isopropoxybenzyl)-2-methyl-5-(1-pentanesulfonylcarbamoyl)-3H-imidazo[4,5-b]pyridine]",130 to 133
13,"CCCCCS(=O)(=O)NC(=O)c1ccc2nc(C)n(Cc3ccc(OCCCC)cc3Cl)c2n1 [Example 17, 3-(2-chloro-4-(1-butoxy)benzyl)-2-methyl-5-(1-pentanesulfonylcarbamoyl)-3H-imidazo[4,5-b]pyridine]",133 to 136
14,"CCCCCOc1ccc(Cn2c(C)nc3ccc(C(=O)NS(=O)(=O)NCCC)nc32)c(Cl)c1 [Example 25, 5-((1-propylaminosulfonyl)carbamoyl)-3-(2-chloro-4-(1-pentyloxy)benzyl)-2-methyl-3H-imidazo[4,5-b]pyridine]",155 to 158
15,"CCCCS(=O)(=O)NC(=O)c1ccc2nc(C)n(Cc3ccc(OCCC)cc3Cl)c2n1 [Example 13, 5-(1-butanesulfonylcarbamoyl)-3-(2-chloro-4-(1-propoxy)benzyl)-2-methyl-3H-imidazo[4,5-b]pyridine]",153 to 154
16,"CCCCCS(=O)(=O)NC(=O)c1ccc2nc(C)n(Cc3ccc(N(C)CCC)cc3Cl)c2n1 [Example 44, 3-(2-chloro-4-(methyl-(1-propyl)amino)benzyl)-2-methyl-5-(1-pentanesulfonylcarbamoyl)-3H-imidazo[4,5-b]pyridine]",129 to 130
17,"CCC/C=C/S(=O)(=O)NC(=O)c1ccc2nc(C)n(Cc3ccc(NC(=O)OC(C)(C)C)cc3Cl)c2n1 [Example 112, 3-(4-(N-t-butoxycarbonylamino)-2-chlorobenzyl)-2-methyl-5-((E)-1-penten-1-ylsulfonylcarbamoyl)-3H-imidazo[4,5-b]pyridine]",215 to 216
18,"CCCCCS(=O)(=O)NC(=O)c1ccc2nc(C)n(Cc3ccc(N(C)C(=O)C(C)(C)C)cc3Cl)c2n1 [Example 64, 3-(2-chloro-4-(methyl(pivaloyl)amino)benzyl)-2-methyl-5-(1-pentanesulfonylcarbamoyl)-3H-imidazo[4,5-b]pyridine]",207 to 208
19,CCCCCS(=O)(=O)NC(=O)c1ccc2nc(C)n(Cc3ccc(N(C)C(=O)OC(C)(C)C)cc3Cl)c2n1.[Na],231 to 233
20,"CCC/C=C/S(=O)(=O)NC(=O)c1ccc2nc(C)n(Cc3ncc(NC(=O)OC(C)(C)C)cc3Cl)c2n1 (as salt: sodium) [Example 130, 3-[(5-(N-(tert-butoxycarbonyl)amino)-3-chloropyridin-2-yl)methyl]-2-methyl-5-((E)-1-penten-1-ylsulfonylcarbamoyl)-3H-imidazo[4,5-b]pyridine]",202 to 204
21,"CCCCCS(=O)(=O)NC(=O)c1ccc2nc(C)n(Cc3ncc(NC(=O)OC(C)(C)C)cc3Cl)c2n1 [Example 129, 3-[(5-(N-(tert-butoxycarbonyl)amino)-3-chloropyridin-2-yl)methyl]-2-methyl-5-(1-pentanesulfonylcarbamoyl)-3H-imidazo[4,5-b]pyridine]",193 to 194
22,"CCCNS(=O)(=O)NC(=O)c1ccc2nc(C)n(Cc3ccc(-c4ccccc4)cc3Cl)c2n1 [Example 60, 3-(2-chloro-4-phenylbenzyl)-2-methyl-5-[(1-propylaminosulfonyl)carbamoyl]-3H-imidazo[4,5-b]pyridine]",208 to 209

# Next, values leading:
row,melting point [°C],SMILES
1,236 to 237,"CCCCS(=O)(=O)NC(=O)c1ccc2nc(C)n(Cc3ccc(NC(=O)OCC)cc3Cl)c2n1 [Example 111, 3-(4-ethoxycarbonylamino-2-chlorobenzyl)-2-methyl-5-(1-butanesulfonylcarbamoyl)-3H-imidazo[4,5-b]pyridine]"
2,177 to 178,"CCCCCS(=O)(=O)NC(=O)c1cc(C)c2nc(C)n(Cc3ccc(-c4ccco4)cc3Cl)c2n1 [Example 86, 3-[2-chloro-4-(2-furyl)benzyl]-2,7-dimethyl-5-(1-pentanesulfonylcarbamoyl)-3H-imidazo[4,5-b]pyridine]"
3,231 to 233,"CCCCS(=O)(=O)NC(=O)c1cc(C)c2nc(C)n(Cc3ccc(-c4ccco4)cc3Cl)c2n1 [Example 88, 3-[2-chloro-4-(2-furyl)benzyl]-2,7-dimethyl-5-(1-butanesulfonylcarbamoyl)-3H-imidazo[4,5-b]pyridine]"
4,181 to 182,"CCCCS(=O)(=O)NC(=O)c1ccc2nc(C)n(Cc3ccc(NC(=O)OC(C)C)cc3Cl)c2n1 [Example 103, 5-(1-butanesulfonylcarbamoyl)-3-(2-chloro-4-(N-(isopropoxycarbonyl)amino)benzyl)-2-methyl-3H-imidazo[4,5-b]pyridine]"
5,224 to 225,"CCCCCS(=O)(=O)NC(=O)c1ccc2nc(C)n(Cc3ccc(-c4ccccc4)nc3Cl)c2n1 [Example 127, 3-[(2-chloro-6-phenylpyridin-3-yl)methyl]-2-methyl-5-(1-pentanesulfonylcarbamoyl)-3H-imidazo[4,5-b]pyridine]"
6,171 to 172,"CCCCCS(=O)(=O)NC(=O)c1ccc2nc(C)n(Cc3ccc(-n4cccc4)cc3Cl)c2n1 [Example 83, 3-(2-chloro-4-(1-pyrrolyl)benzyl)-2-methyl-5-(1-pentanesulfonylcarbamoyl)-3H-imidazo[4,5-b]pyridine]"
7,120 to 121,"CCCCCS(=O)(=O)NC(=O)c1ccc2nc(C)n(Cc3ccc(N(C)C(=O)OCc4ccccc4)cc3Cl)c2n1 [Example 146, 3-(4-(N-(benzyloxycarbonyl)-N-methylamino)-2-chlorobenzyl)-2-methyl-5-(1-pentanesulfonylcarbamoyl)-3H-imidazo[4,5-b]pyridine]"
8,187 to 189,"CCC/C=C/S(=O)(=O)NC(=O)c1ccc2nc(C)n(Cc3ccc(NC(=O)OC(C)C)cc3Cl)c2n1 [Example 102, 3-(2-chloro-4-(N-(isopropoxycarbonyl)amino)benzyl)-2-methyl-5-((E)-1-penten-1-ylsulfonylcarbamoyl)-3H-imidazo[4,5-b]pyridine]"
9,169 to 170,"CCCCCS(=O)(=O)NC(=O)c1ccc2nc(C)n(Cc3ccc(N(C)C(=O)OCCC)cc3Cl)c2n1 [Example 95, 3-(2-chloro-4-(N-methyl-N-(1-propoxycarbonyl)amino)benzyl)-2-methyl-5-(1-pentanesulfonylcarbamoyl)-3H-imidazo[4,5-b]pyridine]"
10,228 to 230,"CCCCCS(=O)(=O)NC(=O)c1ccc2nc(C)n(Cc3ncc(NC(=O)OC(C)C)cc3Cl)c2n1 [Example 135, 3-[(5-(N-(isopropoxycarbonyl)amino)-3-chloropyridin-2-yl)methyl]-2-methyl-5-(1-pentanesulfonylcarbamoyl)-3H-imidazo[4,5-b]pyridine]"
